pIC50: −log10 of the molar value. Values after ≈ are worked out from the molar mass of the structure shown. Active and inactive are the calls of the source. The calls are words filed in the database; no cut-off is given here.
What was measured:
[1] = target: T1, Hematopoietic prostaglandin D synthase (Homo sapiens, UniProt O60760); assay: Inhibition of human hematopoietic prostaglandin D2 synthase at 30 uM by fluorescence polarisation assay
[2] = target: T1, Hematopoietic prostaglandin D synthase; assay: Inhibition of human hematopoietic prostaglandin D2 synthase at 100 uM by fluorescence polarisation assay
[3] = Aqueous solubility in fasted simulated intestinal fluid at pH 6.5; format: physicochemical
[4] = Aqueous solubility in fed simulated intestinal fluid at pH 6.5; format: physicochemical
[5] = Aqueous solubility in water; format: physicochemical
[6] = Aqueous solubility in simulated gastric fluid at pH 1.6; format: physicochemical
[7] = target: T1, Hematopoietic prostaglandin D synthase; assay: Inhibition of human hematopoietic prostaglandin D2 synthase by fluorescence polarisation assay
[8] = target: T1, Hematopoietic prostaglandin D synthase; assay: Inhibition of hematopoietic prostaglandin D2 synthase in IgE and IL-5 primed human LAD2 cells assessed as reduction in PGD2 production by mass spectrometry; format: cell-based
[9] = target: T1, Hematopoietic prostaglandin D synthase; assay: Inhibition of human hematopoietic prostaglandin D2 synthase by rapid fire mass spectrometry assay
[10] = Protein binding in rat whole blood at 1 mg/kg, iv or 3 mg/kg, po by LC-MS/MS method; format: ADME, organism-based; settings: read-out: PB (converted)
[11] = Fraction unbound in rat at 1 mg/kg, iv or 3 mg/kg, po by LC-MS/MS method; format: ADME, organism-based; settings: in vivo
[12] = AUC (0 to infinity) in rat at 1 mg/kg, iv or 3 mg/kg, po by LC-MS/MS method; format: ADME, organism-based; settings: plasma
[13] = Oral bioavailability in rat at 3 mg/kg by LC-MS/MS method; format: ADME, organism-based; settings: in vivo
Rattus norvegicus = assay: fCmax in rat at 3 mg/kg, po by LC-MS/MS method; format: ADME, organism-based; design: dose 3 mg/kg, route oral; settings: in vivo
Mus musculus = assay: Reduction in PGD2 level in C57/BL6/J mouse peritoneal lavage supernatants at 30 mg/kg, po measured 40 mins after compound 48/80 injection by enzyme immunoassay pre-treated 30 mins before compound 48/80 injection; format: functional, organism-based; design: dose 30 mg/kg
[14] = Volume of distribution at steady state in rat at 1 mg/kg, iv or 3 mg/kg, po by LC-MS/MS method; format: ADME, organism-based; settings: in vivo, read-out: Vdss
[15] = Cmax in rat at 3 mg/kg, po by LC-MS/MS method; format: ADME, organism-based; design: dose 3 mg/kg, route oral; settings: in vivo
[16] = Tmax in rat at 3 mg/kg, po by LC-MS/MS method; format: ADME, organism-based; design: dose 3 mg/kg, route oral; settings: in vivo
[17] = Blood clearance in rat at 1 mg/kg, iv or 3 mg/kg, po by LC-MS/MS method; format: ADME, organism-based
[18] = Half life in rat at 1 mg/kg, iv or 3 mg/kg, po by LC-MS/MS method; format: ADME, organism-based; settings: in vivo
[19] = target: T1, Hematopoietic prostaglandin D synthase; assay: Inhibition of human hematopoietic prostaglandin D2 synthase at 10 nM by fluorescence polarisation assay

T1 sequence (O60760 whole entry): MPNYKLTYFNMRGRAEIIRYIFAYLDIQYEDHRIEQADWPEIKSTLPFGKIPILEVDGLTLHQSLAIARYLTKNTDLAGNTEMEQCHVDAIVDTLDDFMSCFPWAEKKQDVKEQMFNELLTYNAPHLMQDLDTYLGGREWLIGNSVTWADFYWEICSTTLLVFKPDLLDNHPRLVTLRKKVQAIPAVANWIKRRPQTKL

In the case of Cc1n[nH]cc1-c1ccc(C#N)cc1, the inhibition [1] was 52%.

With c1cncc(-c2cn[nH]c2)c1 the inhibition [2] was 58%.

Cn1nnnc1N1CCC(NC(=O)c2ccc(-c3cccc(F)c3)nc2)CC1 showed a solubility [3] of 31.2 µg/mL (≈ 81.8 µM), a solubility [4] of 44 µg/mL (≈ 115 µM) and a solubility [5] of 16.5 µg/mL (≈ 43.3 µM). The solubility [6] was 48.9 µg/mL (≈ 128 µM).

With c1nc(NC2CCCC2)c2cc[nH]c2n1 the pIC50 [7] was 6.30.

Work on CCNC(=O)N1Cc2cc(-c3c[nH]nc3C3CC3)cnc2C1 yielded a pIC50 [7] of 7.40, a pIC50 [8] of 5.40 and a pIC50 [9] of 6.30.

With c1nc(NC2CCCC2)c2cn[nH]c2n1 the pIC50 [7] was 5.07.

With c1cncc(-c2c[nH]nc2C2CC2)c1 the pIC50 [7] was 4.77.

O=C(NC1CCCC1)N1Cc2cc(-c3c[nH]nc3C3CC3)cnc2C1 gave a fraction unbound [10] of 0.055, a solubility [3] of 109 µg/mL (≈ 323 µM) and a fraction unbound [11] of 0.055. The AUC(0-inf) [12] was 295 ng·h/mL, the pIC50 [7] was greater than 8.00 and the bioavailability [13] was 19%. The solubility [4] was 136 µg/mL (≈ 403 µM), the fCmax (Rattus norvegicus) was 30 nM and the Activity (Mus musculus) was “Active”. It also gave a Vd [14] of 2.8 L/kg, a Cmax [15] of 196 ng/mL and a solubility [5] of 52 µg/mL (≈ 154 µM). The Tmax [16] was 0.5 h, the pIC50 [8] was 6.50 and the clearance [17] was 33 mL/min/kg. For the same compound, the half-life [18] was 2.2 h, the solubility [6] was 885 µg/mL (≈ 2620 µM) and the pIC50 [9] was 7.40. The inhibition [19] was 66%.

Cc1cn(NC(=O)c2cnc(-c3ccccn3)nc2)c2ccc(F)cc12 gave a solubility [3] of 4.6 µg/mL (≈ 13.2 µM), a solubility [4] of less than 1 µg/mL and a solubility [5] of 4.4 µg/mL (≈ 12.7 µM). It also gave a solubility [6] of 203 µg/mL (≈ 584 µM).

From ChEMBL document CHEMBL3132782, “Identification of orally bioavailable small-molecule inhibitors of hematopoietic prostaglandin D2 synthase using X-ray fragment based drug discovery” (Medchemcomm, 2014)
